Experiments:
[1] = system: bacteria; test: Minimum Inhibitory Concentration (MIC) assay, bacteria; type: cell-based; conditions: antibacterial; complete inhibition of visible growth
Protocol: (§1) These assays are adapted from NCCLS protocols M7-A4 and M27-A (NCCLS vol 17:9 and vol 17:2) as modified by Sandven, S. Clin. Micro. (1999) 37:12, p. 3856–3859. MIC values for Aspergillus fumigatus were determined using NCCLS protocol M38-P.
(§2) All compounds were dissolved in 100% DMSO to a stock concentration of 10 mM and use fresh or stored at −80° C. Stock compounds were kept frozen until needed and used freshly with no more then one freeze-thaw cycle. When used for test purposes, compounds were diluted in the appropriate media depending on the organism being tested.
(§3) For yeast and aspergillus species, seven 1:2 serial dilutions of compound in appropriate media buffered with MOPS at pH 7.0 were prepared such that the final starting test compound concentrations were 50.0 uM for yeast and 50 uM aspergillus species. For bacteria, dilutions were made in growth media used for the particular bacteria being tested.
Inoculums are made in the same manner as yeast except all dilutions are made in normal saline, with a final dilution of 1:200 and an inoculum of 10 μL.

[2] = system: yeast and aspergillus species; test: Minimum Inhibitory Concentration (MIC) assay, yeast and filamentous fungi; type: cell-based, Candida albicans; Aspergillus fumigatus; conditions: antifungal; complete inhibition of visible growth, 48 h at 35 C
Protocol: as §1, §2, §3
Five well-separated colonies from a 24 hr Sabouraud Dextrose plate incubated at 35 C were picked and resuspended into 5.0 ml of normal saline. The O.D.530 was read and the culture was adjusted to 0.5 McFarland units with normal saline. A 1:2000 dilution was made with RPMI 1640 media buffered with MOPS at pH 7.0 and 100 μL of this inoculum preparation was added to an equal volume of test compound-containing media. 25 μL of the redox indicator Alamar Blue (Biosource International) was added to each well and the plates were incubated for 48 h at 35 C. Wells having yeast growth changed color from blue to pink.
Inoculums are made by incubating Aspergillus fumigatus for 7 days at 35 C on potato dextrose agar slants. Slants are then covered with 1.0 ml of 0.85% saline, one drop of Tween 20 is added and colonies are teased with a sterile transfer loop to create a suspension which is allowed to sit for 5 min so heavier particles can drop out. The upper suspension is separated and adjusted to an optical density of 0.09 to 0.11. The resulting suspension is diluted 1:50 which yields 2× the final inoculum needed. Micro dilution trays are prepared as with yeast and incubated for 48 h at 35 C. For our purposes the MIC is defined as the lowest compound concentration at which no visible growth is observed after 48 h.

| SMILES | MIC [1] [µM] | MIC [2] [µM] |
| --- | --- | --- |
| CCCCn1cc(NC(=O)c2ccc(C(=O)Nc3cc(C(=O)NCC(=N)N)n(CCCC)c3)cc2)cc1C(=O)NCC(=N)N [Compound 287, N,N′-Bis-[1-butyl-5-(carbamimidoylmethyl-carbamoyl)-1H-pyrrol-3-yl]terephthalamide] | < 45.5 | < 45.5 |
| N=C(N)CNC(=O)c1cc(NC(=O)c2cnc(C(=O)Nc3cc(C(=O)NCC(=N)N)n(CC4CC4)c3)cn2)cn1CC1CC1 [Compound 293, Pyrazine-2,5-dicarboxylic acid bis-{[5-(carbamimidoylmethyl-carbamoyl)-1-cyclopropylmethyl-1H-pyrrol-3-yl]-amide}] | < 45.5 | < 45.5 |
| N=C(N)CNC(=O)c1cc(NC(=O)C2=CC=C(C(=O)Nc3cc(C(=O)NCC(=N)N)n(CC4CC4)c3)CC2)cn1CC1CC1 [Compound 294, Cyclohexa-1,3-diene-1,4-dicarboxylic acid bis-{[5-(carbamimidoylmethyl-carbamoyl)-1-cyclopropylmethyl-1H-pyrrol-3-yl]-amide}] | < 45.5 | < 45.5 |
| N=C(N)CNC(=O)c1cc(NC(=O)c2ccc(C(=O)Nc3cc(C(=O)NCC(=N)N)n(CC4CC4)c3)cc2)cn1CC1CC1 [Compound 284, N,N′-Bis-[5-(carbamimidoylmethylcarbamoyl)-1-cyclopropylmethyl-1H-pyrrol-3-yl]-terephthalamide] | < 45.5 | < 45.5 |
| CCCCn1cc(NC(=O)c2ccc(C(=O)Nc3cc(C(=O)NCC(=N)NC)n(CCCC)c3)cc2)cc1C(=O)NCC(=N)NC [Compound 289, N,N′-Bis-[1-butyl-5-(methylcarbamimidoylmethyl-carbamoyl)-1H-pyrrol-3-yl]terephthalamide] | < 45.5 | < 45.5 |
| N=C(N)CNC(=O)c1cc(NC(=O)c2ccc(C(=O)Nc3cc(C(=O)NCC(=N)N)n(CC4CC4)c3)nc2)cn1CC1CC1 [Compound 292, Pyridine-2,5-dicarboxylic acid bis{[5-(carbamimidoylmethyl-carbamoyl)-1-cyclopropylmethyl-1H-pyrrol-3-yl]-amide}] | < 45.5 | < 45.5 |
| CCCCn1cc(NC(=O)c2ccc(C(=O)Nc3cc(C(=O)NCC(=N)NCC)n(CCCC)c3)cc2)cc1C(=O)NCC(=N)NCC [Compound 290, N,N′-Bis-[1-butyl-5-(ethylcarbamimidoylmethyl-carbamoyl)-1H-pyrrol-3-yl]terephthalamide] | < 45.5 | < 45.5 |
| N=C(N)CNC(=O)c1cc(NC(=O)c2cc(C(=O)Nc3cc(C(=O)NCC(=N)N)n(CC4CC4)c3)[nH]n2)cn1CC1CC1 [Compound 295, 1H-Pyrazole-3,5-dicarboxylic acid bis-{[5-(carbamimidoylmethyl-carbamoyl)-1-cyclopropylmethyl-1H-pyrrol-3-yl]-amide}] | < 45.5 | < 45.5 |

From patent publication US7064218B2, “Aromatic compounds and poly(oxyalkylene) containing aromatic compounds possessing antibacterial, antifungal or antitumor activity” (Genelabs Technologies, Inc., priority 2001, dated 2006)
